In paper PMC7345905, “Microbial Metabolite Urolithin B Inhibits Recombinant Human Monoamine Oxidase A Enzyme” (Metabolites, 2020):
“And” between values parts separate entries of the source, which are not always exact repeats. Identical values can stand only once.

Columns and labels:
human recombinant MAO-A = biological target: T1, human recombinant MAO-A (Homo sapiens, UniProt P21397); experiment: MAO-Glo MAO-A inhibition assay; format: biochemical; conditions: 100 µM
T1 construct: purchased Sigma-Aldrich
T1 sequence (P21397 1-527): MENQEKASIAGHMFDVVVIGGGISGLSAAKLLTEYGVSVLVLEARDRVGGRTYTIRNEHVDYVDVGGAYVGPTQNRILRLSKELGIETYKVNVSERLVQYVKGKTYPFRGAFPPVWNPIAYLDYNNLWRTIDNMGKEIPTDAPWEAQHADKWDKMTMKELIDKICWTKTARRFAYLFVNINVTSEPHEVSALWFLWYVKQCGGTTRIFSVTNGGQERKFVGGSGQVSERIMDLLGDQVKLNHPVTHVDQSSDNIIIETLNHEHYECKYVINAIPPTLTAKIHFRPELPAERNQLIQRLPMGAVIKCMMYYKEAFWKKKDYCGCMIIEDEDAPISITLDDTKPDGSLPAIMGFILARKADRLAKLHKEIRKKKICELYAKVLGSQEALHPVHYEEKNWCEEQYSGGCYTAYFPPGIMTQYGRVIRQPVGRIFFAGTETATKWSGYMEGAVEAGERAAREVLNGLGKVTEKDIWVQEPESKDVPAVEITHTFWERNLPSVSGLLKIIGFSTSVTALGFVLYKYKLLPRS
Method: (§1) MAO inhibition assays were performed using a MAO-Glo™ Assay kit (Promega) according to the manufacturer’s instructions. Briefly, 1 µg of human recombinant MAO-A and MAO-B enzyme isoforms were incubated with 160 and 16 µM of MAO substrates, respectively. […] The enzyme reaction was quenched by the addition of a luciferin detection reagent. […] An equal volume of dimethyl sulfoxide (0.1%) was added to the enzyme assay as a control. After 1 h of incubation, the luminescence was measured with a multimode microplate reader (Synergy HT, BioTek, Winooski, VT, USA) to determine the MAO enzyme activities. Initially, the inhibition potential of all the test compounds was evaluated at a concentration of 100 μM. The control reaction (with no inhibitor) with vehicle (DMSO 0.1%) was set at 100% activity. To determine IC50 of the test compounds, the dose dependent enzyme assays were performed. We used range of 0.1 to 50 μM concentrations for MAO-A and 0.1 to 200 μM concentrations of test compounds for the MAO-B enzyme activities. The type of enzyme inhibition was determined using variable concentrations of MAO-A substrate (10–360 µM) and MAO-B substrate (2–64 µM) for the respective enzyme assay. […] A Lineweaver–Burk double reciprocal plot was generated, and the mode of inhibition was determined by visual examination of the plot. The slope of the reciprocal plots was plotted against the inhibitor concentrations and determined the x-axis intercept that represented the inhibitor constant, Ki value.

human recombinant MAO-B = biological target: T2, human recombinant MAO-B (Homo sapiens, UniProt P27338); experiment: MAO-Glo MAO-B inhibition assay; format: biochemical
T2 construct: purchased Sigma-Aldrich
T2 sequence (P27338 1-520): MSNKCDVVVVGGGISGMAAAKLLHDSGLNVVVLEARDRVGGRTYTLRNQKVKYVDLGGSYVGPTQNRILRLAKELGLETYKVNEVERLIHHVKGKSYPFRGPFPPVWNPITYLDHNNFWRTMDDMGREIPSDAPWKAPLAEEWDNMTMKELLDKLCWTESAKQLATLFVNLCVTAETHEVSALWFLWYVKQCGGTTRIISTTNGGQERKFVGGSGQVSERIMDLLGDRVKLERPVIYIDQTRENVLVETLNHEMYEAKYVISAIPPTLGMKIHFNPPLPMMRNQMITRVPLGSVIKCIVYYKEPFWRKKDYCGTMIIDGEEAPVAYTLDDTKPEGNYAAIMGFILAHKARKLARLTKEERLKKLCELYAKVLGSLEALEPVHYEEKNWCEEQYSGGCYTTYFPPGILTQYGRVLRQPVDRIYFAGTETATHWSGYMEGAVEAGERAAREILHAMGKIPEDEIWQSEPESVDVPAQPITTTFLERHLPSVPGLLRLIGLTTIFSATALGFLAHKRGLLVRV
Method: as §1

O=c1oc2c(O)c(O)cc3c(=O)oc4c(O)c(O)cc1c4c23 [EA, ellagic acid]
MAO-A enzyme assay, Percent of control (human recombinant MAO-A; 100 µM (Figure 1A), N=1-3): 80.5551% of control and 100.559% of control and 100.148% of control | inhibition of MAO-A enzyme activity (human recombinant MAO-A; compared to vehicle): failed to inhibit | inhibition at 100 µM (human recombinant MAO-B; 100 μM): 20 to 30% | MAO-B enzyme assay, Percent of control (human recombinant MAO-B; 100 µM (Figure 1C), N=1-3, 100 µM): 89.6601% of control and 87.5901% of control | remaining activity at 100 µM (human recombinant MAO-B; 100 µM (Figure 1C), N=1-3, read-out: MAO-B enzyme assay, Percent of control): 88.7%
